Measured values published in BindingDB's records for patent US9926282 (Bristol-Myers Squibb, 2018).

Target: Rho-associated protein kinase 1 (Homo sapiens, UniProt Q13464)
Experiment: In Vitro Assay
Protocol: Compounds were dissolved in DMSO so that the final concentration of DMSO was <2%, and the reaction was initiated with Rho kinase variants. After incubation, the reaction was terminated by the addition of EDTA and the phosphorylated and non-phosphorylated peptides separated using a LABCHIP 3000 Reader (Caliper Life Sciences). […] Compounds were tested in dose-response format, and the inhibition of kinase activity was calculated at each concentration of compound.

Rho-associated protein kinase 1, sequence (Q13464 whole entry): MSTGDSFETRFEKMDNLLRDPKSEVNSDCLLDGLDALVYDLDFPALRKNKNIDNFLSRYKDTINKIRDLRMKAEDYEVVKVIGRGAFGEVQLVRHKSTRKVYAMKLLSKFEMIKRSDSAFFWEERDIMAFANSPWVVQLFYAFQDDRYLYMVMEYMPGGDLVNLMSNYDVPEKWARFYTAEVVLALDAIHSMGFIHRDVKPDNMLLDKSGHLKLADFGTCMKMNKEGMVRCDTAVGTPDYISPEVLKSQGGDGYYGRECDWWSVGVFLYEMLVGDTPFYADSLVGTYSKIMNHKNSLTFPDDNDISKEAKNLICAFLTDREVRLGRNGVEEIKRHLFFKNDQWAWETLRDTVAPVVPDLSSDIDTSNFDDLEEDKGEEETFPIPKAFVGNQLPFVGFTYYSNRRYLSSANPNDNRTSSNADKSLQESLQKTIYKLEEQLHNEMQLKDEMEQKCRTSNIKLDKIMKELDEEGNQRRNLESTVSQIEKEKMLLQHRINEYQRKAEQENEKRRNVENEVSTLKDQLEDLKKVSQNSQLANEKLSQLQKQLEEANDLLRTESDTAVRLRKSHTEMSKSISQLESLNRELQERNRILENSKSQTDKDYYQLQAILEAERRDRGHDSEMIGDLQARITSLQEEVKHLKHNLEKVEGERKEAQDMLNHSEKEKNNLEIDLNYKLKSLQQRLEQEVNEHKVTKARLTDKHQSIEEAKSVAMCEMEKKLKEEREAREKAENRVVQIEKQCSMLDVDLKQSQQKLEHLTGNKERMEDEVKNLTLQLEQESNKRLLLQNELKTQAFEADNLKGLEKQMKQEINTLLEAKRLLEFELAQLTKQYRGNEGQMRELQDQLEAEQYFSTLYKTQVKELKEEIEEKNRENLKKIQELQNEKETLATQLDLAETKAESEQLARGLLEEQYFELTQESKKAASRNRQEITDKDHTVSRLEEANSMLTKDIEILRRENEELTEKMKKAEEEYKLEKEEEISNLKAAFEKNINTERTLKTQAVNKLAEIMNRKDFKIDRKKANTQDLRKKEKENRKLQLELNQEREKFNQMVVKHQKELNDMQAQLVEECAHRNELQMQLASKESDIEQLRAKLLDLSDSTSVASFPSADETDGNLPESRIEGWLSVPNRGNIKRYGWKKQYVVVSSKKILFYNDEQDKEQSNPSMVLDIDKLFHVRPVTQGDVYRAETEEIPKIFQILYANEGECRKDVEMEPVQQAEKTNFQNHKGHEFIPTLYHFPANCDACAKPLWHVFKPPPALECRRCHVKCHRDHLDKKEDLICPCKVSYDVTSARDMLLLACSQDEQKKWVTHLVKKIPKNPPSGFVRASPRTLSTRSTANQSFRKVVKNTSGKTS

IC50 [nM]	Compound
< 100	CCc1c(C(=O)Nc2ccc(-c3n[nH]c(=O)c4ccccc34)cc2)nnn1-c1cccc(Cl)c1 [US9926282, Example 225]
< 100	O=C(Nc1ccc(-c2n[nH]c(=O)c3ccccc23)cc1)c1cnn(CC(O)C(F)(F)F)c1 (centres undefined) [US9926282, Example 378]
< 100	O=C(Nc1ccc(-c2n[nH]c(=O)c3ccccc23)cc1)c1cnn(C2CCCC2)c1 [US9926282, Example 374]
< 100	O=C(Nc1ccc(-c2n[nH]c(=O)c3ccccc23)cc1)c1cc2ncccn2n1 [US9926282, Example 102]
< 100	O=C(Nc1ccc(-c2n[nH]c(=O)c3ccccc23)cc1)c1c[nH]c2ncc(F)cc12 [US9926282, Example 120]

Compound	IC50 [nM]
O=C(Nc1ccc(-c2n[nH]c(=O)c3ccccc23)cc1)c1cnn(C2CCCCC2)c1 [US9926282, Example 373]	< 100
O=C(Nc1ccc(-c2n[nH]c(=O)c3ccccc23)c(Cl)c1)c1nn(CC2CNC2)c2ccccc12 [US9926282, Example 327]	< 100
O=C(Nc1ccc(-c2n[nH]c(=O)c3ccccc23)cc1)c1nn(CC2CCNCC2)c2ccccc12 [US9926282, Example 342]	< 100
CCCn1cc(C(=O)Nc2ccc(-c3n[nH]c(=O)c4ccccc34)cc2)cn1 [US9926282, Example 382]	< 100
